This note sets out measurements from patent publication US20170217914A1, “Novel Triarylethylene Compounds and Methods Using Same” (The Penn State Research Foundation, priority 2014, published 2017).

Like-named read-outs stand apart in the source and are kept apart here.

In data set [1] the test system is MCF-7 (ER-positive) human breast cancer cell line. The data set is described as follows: MTT cell viability assay, MCF-7 cells. The settings on record: for anticancer activity in initial screening: 0.5-25 μM, 48 h (FIG. 3); for IC50: Homo sapiens; for cytotoxic activity: MTT, 72 h, versus Ospemifene and Tamoxifen.
Experimental: (§1) An MTT solution was added to each well and incubated for 3 h at 37° C. After 3 h, DMSO was added and the optical density was measured at 570 nm using a 96-well multiscanner (Dynex Technologies, MRX Revelation; Chantilly, Va., USA). Backgrounds were subtracted at 630 nm. IC50 values were calculated by non-linear regression analysis using Prism software.
(§2) The effects of novel triarylethylene derivatives on the cell viability were determined by the MTT uptake method using previously described methods (Kaur et al., 2014, Eur. J. Med. Chem. 86:211-218). Briefly, 3000 cells were incubated with various concentrations of compounds in triplicate in a 96-well plate for 72 h at 37° C. An MTT solution was added to each well and incubated for 3 h at 37° C. After 3 h, DMSO was added and the optical density was measured at 570 nm using a 96-well multiscanner (Dynex Technologies, MRX Revelation; Chantilly, Va., USA). Backgrounds were subtracted at 630 nm. IC50 values were calculated by non-linear regression analysis using Prism software.
Data set [2] has as its system MDA-MB-231 (ER-negative) human breast cancer cell line. Put plainly: MTT cell viability assay, MDA-MB-231 cells. The settings on record: for anticancer activity in initial screening: 0.5-25 μM, 48 h (FIG. 3); for IC50: Homo sapiens; for cytotoxic activity: MTT, 72 h, versus Ospemifene and Tamoxifen.
Experimental: as §1, §2
The next data set has as its system MMP-9. Put plainly: Western blot, MMP-9 expression in breast cancer cells. It counts as cell-based, human. The settings on record: MDA-MB-231 and MCF-7 cells, 24 h. As for the experimental part:
To determine the effect of novel triarylethylene derivatives on proteins involved in metastasis, and adhesion, whole-cell extracts were prepared by subjecting cells to lysis in RIPA buffer supplemented with protease and phosphatase inhibitor cocktails using previously described methods (Pandey et al., 2014, Exp. Hematol. 42:883-896). Lysates were spun at 15,000 rpm for 10 minutes to remove insoluble material. Supernatant were collected and kept at −80° C. Lysates were resolved by SDS-PAGE. After electrophoresis, the proteins were electro-transferred to PVDF membranes, blotted with the relevant antibodies, and detected by enhanced chemo-luminescence reagent.

The mark [3] stands for this setting: MCF7, 48 h, read-out: MCF-7 (ER positive) IC50.
Where [4] appears, read: MCF7, 96 h, read-out: MCF-7 (ER positive) IC50.
Where [5] appears, read: MDA-MB-231, 48 h, read-out: MDA-MB-231 (ER− negative) IC50.
[6] abbreviates: MDA-MB-231, 96 h, read-out: MDA-MB-231 (ER− negative) IC50.
[7] abbreviates: MCF7, 72 h, read-out: MCF-7 IC50.
Where [8] appears, read: MDA-MB-231, 72 h, read-out: MDA-MB-231 IC50.

In turn, `CS(=O)(=O)OCCOc1ccc(/C(=C(/CCCl)c2ccccc2)c2ccccc2)cc1` [Compound 2, (Z)-2-{4-(4-chloro-1,2-diphenylbut-1-enyl}phenoxy) ethyl methanesulfonate] showed a melting point of 84 to 86 °C. Also, in data set [1], the “anticancer activity in initial screening” value is “inactive”. Besides, in data set [2], the “anticancer activity in initial screening” value is “inactive”.

With `[N-]=[N+]=NCCOc1ccc(/C(=C(/CCCl)c2ccccc2)c2ccccc2)cc1` [Compound 3, (Z)-[1-{4-(2-azidoethoxy)phenyl}-4-chlorobut-1-ene-1,2-diyl]dibenzene], the melting point fell in the range of 88 to 90 °C. Also, the “anticancer activity in initial screening” value in data set [1] is “inactive”. In data set [2], the “anticancer activity in initial screening” value is “inactive”.

On to `[N-]=[N+]=NCC/C(=C(\c1ccccc1)c1ccc(OCCO)cc1)c1ccccc1` [Compound 4, (Z)-2-{4-(4-azido-1,2-diphenylbut-1-enyl)phenoxy}ethanol], for which the melting point is 126 to 128 °C. In data set [1], the “anticancer activity in initial screening” value is recorded as “activity similar to Ospemifene”. Also, the IC50 in data set [1] (setting [3]) was over 100 µM. The IC50 in data set [1] (setting [4]) is over 100 µM. Besides, the IC50 in data set [2] (setting [5]) was over 100 µM. Further, in data set [2] (setting [6]), the IC50 is over 100 µM.

Consider `[N-]=[N+]=NCCOc1ccc(/C(=C(/CCN=[N+]=[N-])c2ccccc2)c2ccccc2)cc1` [Compound 5, (Z)-[4-azido-1-{4-(2-azidoethoxy)phenyl}but-1-ene-1,2-diyl]dibenzene], for which the “anticancer activity in initial screening” value in data set [1] and in data set [2] was “ineffective” each time.

Consider `O=C(NCC/C(=C(\c1ccccc1)c1ccc(OCCO)cc1)c1ccccc1)Oc1ccccc1` [Compound 8, (Z)-Phenyl 4-{4-(2-hydroxyethoxy)phenyl}-3,4-diphenylbut-3-enylcarbamate], for which the melting point fell in the range of 121 to 123 °C. Moreover, in data set [1], the “anticancer activity in initial screening” value is given as “more potent than Ospemifene”. For the same molecule, in data set [1] (setting [3]), the IC50 amounted to 76 µM. For the same molecule, the IC50 in data set [1] (setting [4]) came out at 50 µM. In data set [2], the “anticancer activity in initial screening” value was “more potent than Ospemifene”. In data set [2] (setting [5]), the IC50 was over 100 µM. Besides, the IC50 in data set [2] (setting [6]) turned out to be 62.3 µM.

The molecule `COc1ccc(/C(=C(/CCCl)c2ccccc2)c2ccccc2)cc1` [Compound 11, (Z)-(4-Chloro-1-(4-methoxyphenyl)but-1-ene-1,2-diyl)dibenzene] gave a melting point of 87 to 89 °C.

Molecule `COc1ccc(/C(=C(/CCN=[N+]=[N-])c2ccccc2)c2ccccc2)cc1` [Compound 12, (Z)-(4-Azido-1-(4-methoxyphenyl)but-1-ene-1,2-diyl)dibenzene] showed a melting point of 126 to 128 °C.

On to `CCOC(=O)C(=O)NCC/C(=C(\c1ccccc1)c1ccc(OC)cc1)c1ccccc1` [Compound 15, (Z)-Ethyl-2-(4-(4-methoxyphenyl)-3,4-diphenylbut-3-enylamino)-2-oxoacetate], for which the IC50 in data set [1] (setting [7]) and in data set [2] (setting [8]) was over 50 µM in each case.

Regarding `COc1ccc(/C(=C(/CCNC(=O)NCc2ccccc2)c2ccccc2)c2ccccc2)cc1` [Compound 16, (Z)-1-Benzyl-3-(4-(4-methoxyphenyl)-3,4-diphenylbut-3-enyl) urea], the melting point is 158 to 160 °C. For the same molecule, in data set [1] (setting [7]), the half-maximal inhibitory concentration (IC50) was over 50 µM. In addition, the IC50 in data set [2] (setting [8]) was over 50 µM.

`COc1ccc(/C(=C(/CCNC(=O)NC2CCCCC2)c2ccccc2)c2ccccc2)cc1` [Compound 17, (Z)-1-Cyclohexyl-3-(4-(4-methoxyphenyl)-3,4-diphenylbut-3-enyl) urea]: the melting point is 168 to 170 °C. For the same molecule, in data set [1] (setting [7]), the IC50 turned out to be 37.2 ± 13.7 µM. Moreover, the IC50 in data set [2] (setting [8]) is over 50 µM.

Molecule `COc1ccc(/C(=C(/CCNC(=O)N2CCOCC2)c2ccccc2)c2ccccc2)cc1` [Compound 18, (Z)—N-(4-(4-Methoxyphenyl)-3,4-diphenylbut-3-enyl)morpholine-4-carboxamide] showed a melting point of 139 to 141 °C. Also, the IC50 in data set [1] (setting [7]) was over 50 µM. Besides, the IC50 in data set [2] (setting [8]) is 42.8 ± 12.2 µM.

Consider `CCN(CC)C(=O)NCC/C(=C(\c1ccccc1)c1ccc(OC)cc1)c1ccccc1` [Compound 19, (Z)-1,1-Diethyl-3-(4-(4-methoxyphenyl)-3,4-diphenylbut-3-enyl)urea], for which the melting point was 159 to 160 °C. The IC50 in data set [1] (setting [7]) is over 50 µM. Besides, the IC50 in data set [2] (setting [8]) was determined as 40.7 ± 12.2 µM.

In turn, `COc1ccc(/C(=C(/CCNC(=O)N2CCCCC2)c2ccccc2)c2ccccc2)cc1` [Compound 20, (Z)—N-(4-(4-Methoxyphenyl)-3,4-diphenylbut-3-enyl)piperidine-1-carboxamide] gave a melting point of 197 to 198 °C. Moreover, the IC50 in data set [1] (setting [7]) was over 50 µM. The IC50 in data set [2] (setting [8]) was over 50 µM.

`COc1ccc(/C(=C(/CCNC(=O)N2CCCC2)c2ccccc2)c2ccccc2)cc1` [Compound 21, (Z)—N-(4-(4-Methoxyphenyl)-3,4-diphenylbut-3-enyl)pyrrolidine-1-carboxamide] returned a melting point of 194.2 to 195.4 °C. In addition, the IC50 in data set [1] (setting [7]) was over 50 µM. In data set [2] (setting [8]), the 50% inhibitory concentration (IC50) was over 50 µM.

With `COc1ccc(/C(=C(/CCNC(=O)C(=O)N2CCCC2)c2ccccc2)c2ccccc2)cc1` [Compound 24, (Z)—N-(4-(4-Methoxyphenyl)-3,4-diphenylbut-3-enyl)-2-oxo-2-(pyrrolidin-1-yl)acetamide], the melting point lay within 151 to 152 °C. Moreover, in data set [1] (setting [7]), the IC50 is over 50 µM. Moreover, the IC50 in data set [2] (setting [8]) amounted to 48.6 ± 14.5 µM.

In turn, `COc1ccc(/C(=C(/CCNC(=O)C(=O)N2CCOCC2)c2ccccc2)c2ccccc2)cc1` [Compound 25, (Z)—N-(4-(4-Methoxyphenyl)-3,4-diphenylbut-3-enyl)-2-morpholino-2-oxoacetamide] registered a melting point of 118.4 to 119.3 °C. Moreover, the IC50 in data set [1] (setting [7]) was 43.4 ± 7.5 µM. Moreover, in data set [2] (setting [8]), the IC50 stood at 20 ± 9.8 µM. The “cytotoxic activity” value in data set [2] was “good activity”.

Turning to `COc1ccc(/C(=C(/CCNC(=O)C(=O)N2CCCCC2)c2ccccc2)c2ccccc2)cc1` [Compound 26, (Z)—N-(4-(4-Methoxyphenyl)-3,4-diphenylbut-3-enyl)-2-oxo-2-(piperidin-1-yl)acetamide], the melting point lay within 125 to 127 °C. The IC50 in data set [1] (setting [7]) was over 50 µM. The IC50 in data set [2] (setting [8]) was over 50 µM.

As to “(Z)-Ethyl-2-(4-(4-methoxyphenyl)-3,4-diphenylbut-3-enylamino)-2-oxoacetate [Compound 15]”, the “expression of MMP-9” value with MMP-9 was “modulated the expression”. Besides, the “cytotoxic activity” value in data set [1] and in data set [2] was “much more effective than the standards” in each case.

“(Z)-Phenyl-4-(4-methoxyphenyl)-3,4-diphenylbut-3-enylcarbamate [Compound 14]”: in the data set on MMP-9, the “expression of MMP-9” value is “modulated the expression”. The “cytotoxic activity” value in data set [1] and in data set [2] was “much more effective than the standards” each time.
